Test results from ChEMBL document CHEMBL5143597, “Design and synthesis of novel spirocyclic carboxylic acids as potent and orally bioavailable DGAT1 inhibitors and their biological evaluation” (Bioorg Med Chem Lett, 2022).
Each block holds one compound with its values, some of them ahead of it.

Legend:
[1] = target: T1, CYP1A2 (Homo sapiens, UniProt P05177); test: Inhibition of recombinant human CYP1A2 at 25 uM by fluorescence plate reader analysis; type: ADME
T1 sequence (P05177 whole entry): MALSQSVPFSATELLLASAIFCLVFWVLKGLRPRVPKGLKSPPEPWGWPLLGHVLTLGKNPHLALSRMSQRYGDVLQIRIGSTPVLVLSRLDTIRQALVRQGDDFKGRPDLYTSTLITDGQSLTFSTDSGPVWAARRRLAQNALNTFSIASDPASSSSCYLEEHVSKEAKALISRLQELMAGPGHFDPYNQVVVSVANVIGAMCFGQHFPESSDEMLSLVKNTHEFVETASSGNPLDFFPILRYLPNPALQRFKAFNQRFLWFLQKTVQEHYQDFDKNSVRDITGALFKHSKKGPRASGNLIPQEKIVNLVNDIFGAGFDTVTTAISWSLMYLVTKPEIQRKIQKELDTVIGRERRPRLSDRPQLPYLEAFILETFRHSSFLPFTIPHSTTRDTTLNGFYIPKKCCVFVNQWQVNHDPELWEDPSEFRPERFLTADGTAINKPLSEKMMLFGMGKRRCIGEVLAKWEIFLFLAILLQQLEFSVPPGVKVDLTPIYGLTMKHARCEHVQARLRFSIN

[2] = target: CYP2D6 (Homo sapiens, UniProt P10635); test: Inhibition of recombinant human CYP2D6 at 25 uM by fluorescence plate reader analysis; type: ADME
[3] = Solubility of compound in PBS at pH 4 incubated for 4 hrs under shaking condition by UV absorbance based analysis; type: physicochemical
[4] = Solubility of compound in PBS at pH 7.4 incubated for 4 hrs under shaking condition by UV absorbance based analysis; type: physicochemical
[5] = Solubility of compound in PBS at pH 9 incubated for 4 hrs under shaking condition by UV absorbance based analysis; type: physicochemical
[6] = Solubility of compound in PBS at pH 2 incubated for 4 hrs under shaking condition by UV absorbance based analysis; type: physicochemical
[7] = target: CYP3A4 (Homo sapiens, UniProt P08684); test: Inhibition of recombinant human CYP3A4 at 25 uM by fluorescence plate reader analysis; type: ADME
[8] = target: T2, Diacylglycerol O-acyltransferase 1 (Homo sapiens, UniProt O75907); test: Inhibition of human DGAT1 in serum starved HEK293 cells assessed as inhibition of triglyceride synthesis incubated for 20 mins followed by 13C-addition of 13C-oleic acid pre-complexed with BSA for 120 mins by LC-MS-based mass spectrophotometric analysis; type: cell-based
T2 sequence (O75907 whole entry): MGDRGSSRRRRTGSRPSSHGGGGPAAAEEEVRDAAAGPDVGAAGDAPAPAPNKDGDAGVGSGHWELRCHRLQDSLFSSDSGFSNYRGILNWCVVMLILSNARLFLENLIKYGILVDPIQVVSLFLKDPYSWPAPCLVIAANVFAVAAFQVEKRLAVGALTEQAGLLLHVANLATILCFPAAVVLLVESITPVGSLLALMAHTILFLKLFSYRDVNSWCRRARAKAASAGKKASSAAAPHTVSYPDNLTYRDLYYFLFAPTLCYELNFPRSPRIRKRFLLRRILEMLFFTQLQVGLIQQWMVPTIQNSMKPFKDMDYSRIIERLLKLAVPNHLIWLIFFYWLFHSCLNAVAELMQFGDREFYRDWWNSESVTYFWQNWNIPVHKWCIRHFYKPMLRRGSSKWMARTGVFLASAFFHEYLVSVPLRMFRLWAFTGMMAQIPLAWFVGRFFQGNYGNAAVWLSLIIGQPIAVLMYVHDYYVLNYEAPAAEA

[9] = Drug distribution in C57BL/6 mouse skeletal muscle 10 mg/kg, po and measured at 1 hrs post dose by LC-MS/MS analysis; type: ADME, organism-based, Skeletal muscle tissue; conditions: read-out: Ct
[10] = Drug distribution in C57BL/6 mouse skeletal muscle 10 mg/kg, po and measured at 2 hrs post dose by LC-MS/MS analysis; type: ADME, organism-based, Skeletal muscle tissue; conditions: read-out: Ct
[11] = AUC in Wistar rat at 3 mg/kg, iv or 10 mg/kg, po and measured up to 24 hrs by LC-MS/MS analysis; type: ADME, organism-based; design: dose 3 mg/kg, time < 24 hrs, route iv; conditions: in vivo
[12] = Drug distribution in C57BL/6 mouse plasma 10 mg/kg, po and measured at 8 hrs post dose by LC-MS/MS analysis; type: ADME, organism-based
[13] = Drug distribution in C57BL/6 mouse liver 10 mg/kg, po and measured at 2 hrs post dose by LC-MS/MS analysis; type: ADME, organism-based; conditions: read-out: Ct
[14] = Apparent permeability across apical to basolateral side in MDCK cells at 2.5 uM for 90 mins; type: ADME, cell-based, Canis lupus familiaris; conditions: dog
[15] = Drug distribution in C57BL/6 mouse adipose tissue 10 mg/kg, po and measured at 8 hrs post dose by LC-MS/MS analysis; type: ADME, organism-based; conditions: read-out: Ct
[16] = Drug distribution in C57BL/6 mouse adipose tissue 10 mg/kg, po and measured at 1 hrs post dose by LC-MS/MS analysis; type: ADME, organism-based; conditions: read-out: Ct
[17] = Drug distribution in C57BL/6 mouse skeletal muscle 10 mg/kg, po and measured at 8 hrs post dose by LC-MS/MS analysis; type: ADME, organism-based, Skeletal muscle tissue; conditions: read-out: Ct
[18] = Cmax in Wistar rat at 3 mg/kg, iv or 10 mg/kg, po and measured up to 24 hrs by LC-MS/MS analysis; type: ADME, organism-based; design: dose 3 mg/kg, time < 24 hrs, route iv; conditions: in vivo
[19] = Metabolic stability in mouse liver microsomes assessed as parent compound remaining at 1 uM and measured at 30 mins by LC-MS/MS analysis; type: ADME, Microsome; conditions: read-out: Stability
[20] = Cmax in C57BL/6 mouse at 3 mg/kg, iv or 10 mg/kg, po and measured up to 24 hrs by LC-MS/MS analysis; type: ADME, organism-based; design: dose 3 mg/kg, time < 24 hrs, route iv; conditions: in vivo
[21] = Metabolic stability in rat liver microsomes assessed as parent compound remaining at 1 uM and measured at 30 mins by LC-MS/MS analysis; type: ADME, Microsome; conditions: read-out: Stability
[22] = Plasma protein binding in rat; type: ADME, cell-free; conditions: read-out: PPB
[23] = Clearance in Wistar rat at 3 mg/kg, iv or 10 mg/kg, po and measured up to 24 hrs by LC-MS/MS analysis; type: ADME, organism-based; conditions: in vivo
[24] = Drug distribution in C57BL/6 mouse brain 10 mg/kg, po and measured at 2 hrs post dose by LC-MS/MS analysis; type: ADME, organism-based; conditions: read-out: Ct
[25] = Volume of distribution at steady state in Wistar rat at 3 mg/kg, iv or 10 mg/kg, po and measured up to 24 hrs by LC-MS/MS analysis; type: ADME, organism-based; conditions: in vivo, read-out: Vdss
[26] = Drug distribution in C57BL/6 mouse brain 10 mg/kg, po and measured at 1 hrs post dose by LC-MS/MS analysis; type: ADME, organism-based; conditions: read-out: Ct
[27] = Drug distribution in C57BL/6 mouse liver 10 mg/kg, po and measured at 8 hrs post dose by LC-MS/MS analysis; type: ADME, organism-based; conditions: read-out: Ct
[28] = Metabolic stability in human liver microsomes assessed as parent compound remaining at 1 uM and measured at 30 mins by LC-MS/MS analysis; type: ADME, Microsome; conditions: read-out: Stability
[29] = AUC in C57BL/6 mouse at 3 mg/kg, iv or 10 mg/kg, po and measured up to 24 hrs by LC-MS/MS analysis; type: ADME, organism-based; design: time < 24 hrs, dose 3 mg/kg, route iv; conditions: in vivo
[30] = Half life in Wistar rat at 3 mg/kg, iv or 10 mg/kg, po and measured up to 24 hrs by LC-MS/MS analysis; type: ADME, organism-based; conditions: in vivo
[31] = Oral bioavailability in Wistar rat at 10 mg/kg or 3 mg/kg, iv and measured up to 24 hrs by LC-MS/MS analysis; type: ADME, organism-based; conditions: in vivo
[32] = Drug distribution in C57BL/6 mouse adipose tissue 10 mg/kg, po and measured at 2 hrs post dose by LC-MS/MS analysis; type: ADME, organism-based; conditions: read-out: Ct
[33] = Drug distribution in C57BL/6 mouse plasma 10 mg/kg, po and measured at 2 hrs post dose by LC-MS/MS analysis; type: ADME, organism-based
[34] = Clearance in C57BL/6 mouse at 3 mg/kg, iv or 10 mg/kg, po and measured up to 24 hrs by LC-MS/MS analysis; type: ADME, organism-based; conditions: in vivo
[35] = Drug distribution in C57BL/6 mouse liver 10 mg/kg, po and measured at 1 hrs post dose by LC-MS/MS analysis; type: ADME, organism-based; conditions: read-out: Ct
[36] = Oral bioavailability in C57BL/6 mouse 10 mg/kg or 3 mg/kg, iv and measured up to 24 hrs by LC-MS/MS analysis; type: ADME, organism-based; conditions: in vivo
[37] = Plasma protein binding in mouse; type: ADME, cell-free; conditions: read-out: PPB (converted)
[38] = Tmax in C57BL/6 mouse at 3 mg/kg, iv or 10 mg/kg, po and measured up to 24 hrs by LC-MS/MS analysis; type: ADME, organism-based; conditions: in vivo
[39] = Drug distribution in C57BL/6 mouse plasma 10 mg/kg, po and measured at 1 hrs post dose by LC-MS/MS analysis; type: ADME, organism-based
[40] = target: hERG (KCNH2) (Homo sapiens, UniProt Q12809); test: Displacement of [3H]astemizole from human ERG expressed in HEK293 cell membrane at 30 uM for 2 hrs by Radiometric displacement assay; type: toxicity; conditions: HEK293 cell membranes that express hERG, probe [3H]astemizole
[41] = Volume of distribution at steady state in C57BL/6 mouse at 3 mg/kg, iv or 10 mg/kg, po and measured up to 24 hrs by LC-MS/MS analysis; type: ADME, organism-based; conditions: in vivo, read-out: Vdss
[42] = Half life in C57BL/6 mouse at 3 mg/kg, iv or 10 mg/kg, po and measured up to 24 hrs by LC-MS/MS analysis; type: ADME, organism-based; conditions: in vivo
[43] = Tmax in Wistar rat at 3 mg/kg, iv or 10 mg/kg, po and measured up to 24 hrs by LC-MS/MS analysis; type: ADME, organism-based; conditions: in vivo
[44] = target: 2-acylglycerol O-acyltransferase 2 (Homo sapiens) (UniProt Q3SYC2); test: Inhibition of recombinant human MGAT2 expressed in Sf9 cell membrane assessed as inhibition of triglyceride synthesis at 10 uM for 1 hr by LC-MS-based mass spectrophotometric analysis
[45] = Inhibition of human […] in HepG2 cells assessed as inhibition of triglyceride synthesis at 1 uM incubated for 1 hrs followed by 13C-addition of 13C-oleic acid pre-complexed with fatty acid free BSA for 6 hrs by LC/MS/MS analysis; conditions: time 7.0 hrs
[46] = Inhibition of human […] in HepG2 cells assessed as inhibition of triglyceride synthesis at 100 nM incubated for 1 hrs followed by 13C-addition of 13C-oleic acid pre-complexed with fatty acid free BSA for 6 hrs by LC/MS/MS analysis; conditions: time 7.0 hrs
[47] = Inhibition of human […] in HepG2 cells assessed as inhibition of triglyceride synthesis at 300 nM incubated for 1 hrs followed by 13C-addition of 13C-oleic acid pre-complexed with fatty acid free BSA for 6 hrs by LC/MS/MS analysis; conditions: time 7.0 hrs

Sequence of CYP3A4 (P08684 whole entry): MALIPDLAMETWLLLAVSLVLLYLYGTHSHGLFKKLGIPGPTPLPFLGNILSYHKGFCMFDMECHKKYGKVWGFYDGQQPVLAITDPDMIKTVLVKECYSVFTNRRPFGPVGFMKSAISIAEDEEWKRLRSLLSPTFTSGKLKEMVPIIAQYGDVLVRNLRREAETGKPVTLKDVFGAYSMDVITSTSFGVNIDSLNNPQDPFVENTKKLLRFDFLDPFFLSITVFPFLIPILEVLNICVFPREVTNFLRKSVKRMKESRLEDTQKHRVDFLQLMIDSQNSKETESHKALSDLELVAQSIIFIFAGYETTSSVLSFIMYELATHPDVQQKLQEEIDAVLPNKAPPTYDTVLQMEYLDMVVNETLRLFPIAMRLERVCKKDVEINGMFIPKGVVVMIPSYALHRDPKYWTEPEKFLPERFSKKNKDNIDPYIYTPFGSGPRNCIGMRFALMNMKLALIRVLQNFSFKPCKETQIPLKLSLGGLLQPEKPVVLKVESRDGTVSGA
Sequence of hERG (KCNH2) (Q12809 whole entry): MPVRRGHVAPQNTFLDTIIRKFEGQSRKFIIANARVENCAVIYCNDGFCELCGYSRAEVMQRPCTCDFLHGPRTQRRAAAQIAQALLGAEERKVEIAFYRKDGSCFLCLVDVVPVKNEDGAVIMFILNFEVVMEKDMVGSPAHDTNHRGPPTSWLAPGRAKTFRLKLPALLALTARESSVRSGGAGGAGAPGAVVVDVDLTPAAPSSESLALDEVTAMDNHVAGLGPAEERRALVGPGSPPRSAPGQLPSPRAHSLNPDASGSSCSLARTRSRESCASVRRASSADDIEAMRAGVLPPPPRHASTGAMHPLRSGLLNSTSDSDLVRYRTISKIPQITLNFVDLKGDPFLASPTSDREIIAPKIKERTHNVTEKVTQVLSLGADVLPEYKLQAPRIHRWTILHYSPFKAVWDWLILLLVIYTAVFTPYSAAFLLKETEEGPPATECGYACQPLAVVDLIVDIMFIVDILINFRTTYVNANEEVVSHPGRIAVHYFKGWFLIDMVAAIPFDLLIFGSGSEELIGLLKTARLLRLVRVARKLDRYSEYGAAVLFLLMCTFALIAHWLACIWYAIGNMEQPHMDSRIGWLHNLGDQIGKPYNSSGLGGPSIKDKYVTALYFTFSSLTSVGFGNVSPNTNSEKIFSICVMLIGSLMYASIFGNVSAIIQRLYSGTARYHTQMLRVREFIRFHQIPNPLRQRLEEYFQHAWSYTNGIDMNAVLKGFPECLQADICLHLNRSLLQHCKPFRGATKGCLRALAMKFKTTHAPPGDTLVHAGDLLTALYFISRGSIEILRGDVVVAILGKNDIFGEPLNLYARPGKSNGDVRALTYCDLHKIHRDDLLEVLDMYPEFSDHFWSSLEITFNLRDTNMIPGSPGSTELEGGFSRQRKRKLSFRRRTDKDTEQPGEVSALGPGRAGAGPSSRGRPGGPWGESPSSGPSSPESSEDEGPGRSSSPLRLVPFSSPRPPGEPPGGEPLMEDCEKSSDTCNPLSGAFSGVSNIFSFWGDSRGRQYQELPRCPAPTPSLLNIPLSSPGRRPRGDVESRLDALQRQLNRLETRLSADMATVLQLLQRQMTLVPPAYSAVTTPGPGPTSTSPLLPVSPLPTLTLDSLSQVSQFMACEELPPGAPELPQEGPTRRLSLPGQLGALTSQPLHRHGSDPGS
Sequence of 2-acylglycerol O-acyltransferase 2 (Homo sapiens) (Q3SYC2 whole entry, looked up): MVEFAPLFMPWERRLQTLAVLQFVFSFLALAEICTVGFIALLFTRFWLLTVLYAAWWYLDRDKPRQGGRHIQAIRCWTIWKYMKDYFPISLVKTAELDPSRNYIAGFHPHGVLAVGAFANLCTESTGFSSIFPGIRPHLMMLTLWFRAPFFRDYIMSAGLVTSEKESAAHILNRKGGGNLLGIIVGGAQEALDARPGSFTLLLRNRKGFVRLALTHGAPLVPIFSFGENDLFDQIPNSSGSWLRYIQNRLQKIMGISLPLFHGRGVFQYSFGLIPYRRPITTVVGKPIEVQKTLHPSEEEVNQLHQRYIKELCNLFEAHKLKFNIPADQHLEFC
Sequence of CYP2D6 (P10635 whole entry): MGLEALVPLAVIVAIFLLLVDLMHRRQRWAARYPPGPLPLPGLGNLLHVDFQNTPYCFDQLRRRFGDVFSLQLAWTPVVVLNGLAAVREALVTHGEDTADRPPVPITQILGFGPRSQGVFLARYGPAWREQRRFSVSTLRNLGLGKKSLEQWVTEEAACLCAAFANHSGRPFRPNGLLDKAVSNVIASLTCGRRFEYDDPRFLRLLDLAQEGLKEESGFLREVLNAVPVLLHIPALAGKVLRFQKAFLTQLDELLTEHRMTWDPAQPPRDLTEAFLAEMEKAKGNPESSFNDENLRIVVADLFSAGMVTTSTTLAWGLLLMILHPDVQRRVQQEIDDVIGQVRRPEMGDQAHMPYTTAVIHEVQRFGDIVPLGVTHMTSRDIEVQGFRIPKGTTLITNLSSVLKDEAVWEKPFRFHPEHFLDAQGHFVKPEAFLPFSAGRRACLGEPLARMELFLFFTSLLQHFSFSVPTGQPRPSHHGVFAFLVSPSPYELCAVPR

- inhibition at 25 µM [1]: 5%
- inhibition at 25 µM [2]: 8%
- solubility at 4 h [3]: 263 µM
- solubility at 4 h [4]: 14 µM
- solubility at 4 h [5]: 17 µM
- solubility at 4 h [6]: 28 µM
- inhibition at 25 µM [7]: 5%
SMILES: O=C([O-])CC1CCC2(CC1)CCC(c1ccc(NC(=O)c3nnc(Nc4ccc(F)c(F)c4)o3)cc1)CC2.[Na+] (stereo not drawn)

- IC50 [8]: 0.066 µM
SMILES: O=C(O)C[C@H]1CC[C@H](c2ccc(-c3ccc(Nc4ccc(C(F)(F)F)nc4)cn3)cc2)CC1 [PRADIGASTAT]

- concentration at 1 h [9]: 520 nM
- concentration at 2 h [10]: 290 nM
- AUC at 24 h [11]: 23.7 µM·h
- concentration at 8 h [12]: 80 nM
- concentration at 2 h [13]: 73000 nM
- Papp A→B at 1.5 h, 2.5 µM [14]: 4.7 ×10⁻⁶ cm/s
- concentration at 8 h [15]: 110 nM
- IC50 [8]: 0.016 µM
- concentration at 1 h [16]: 740 nM
- concentration at 8 h [17]: 70 nM
- Cmax [18]: 3800 nM
- remaining at 0.5 h, 1 µM [19]: 88%
- Cmax [20]: 2600 nM
- remaining at 0.5 h, 1 µM [21]: 71%
- fraction unbound [22]: < 0.01
- clearance [23]: 1.2 mL/min/kg
- concentration at 2 h [24]: 60 nM
- Vd [25]: 0.5 L/kg
- concentration at 1 h [26]: 20 nM
- concentration at 8 h [27]: 28000 nM
- remaining at 0.5 h, 1 µM [28]: 100%
- AUC at 24 h [29]: 4.4 µM·h
- half-life [30]: 6.4 h
- bioavailability [31]: 9%
- concentration at 2 h [32]: 470 nM
- concentration at 2 h [33]: 1860 nM
- clearance [34]: 21 mL/min/kg
- concentration at 1 h [35]: 74000 nM
- bioavailability [36]: 53%
- fraction unbound [37]: 0.03
- Tmax [38]: 0.5 h
- concentration at 1 h [39]: 2760 nM
- Vd [41]: 1.8 L/kg
- half-life [42]: 2.1 h
- Tmax [43]: 1.3 h
SMILES: O=C(O)CC1CCC2(CC1)CCC(c1ccc(NC(=O)c3nnc(Nc4ccc(F)c(F)c4)o3)cn1)CC2 (stereo not drawn)
- inhibition at 2 h, 30 µM [40]: 26%

- inhibition [44]: 16%
- inhibition [45]: 96%
- inhibition [46]: 88%
- inhibition [47]: 94%
SMILES: O=C(Nc1ccc(C2CCC3(CC2)CC(C(=O)O)C3)cc1)c1nnc(Nc2ccc(F)c(F)c2)o1 (stereo not drawn)
